Measurements from the supplement of paper PMC10307832.

Columns and labels:
Assay in all cases: relative viability (nuclei count vs DMSO), 5 days (fraction); higher = more cells survive
[1] = test system: Calu-6
How it was run: (§1)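 A single step with final 0.05% Triton X-100, 1% formaldehyde and 1 ug/ml Hoechst fixed the cells and stained nuclei 5 days after treatment. Lung cancer cell lines in 1536-well plates had been treated by pin tool the day after seeding with one drug alone or a fixed anchor-drug dose plus five library-drug doses (not always all listed) in √10 steps, and nuclei were counted on 4× images. Relative viability is the ratio of nuclei in treated wells to nuclei in vehicle wells, taken as the median of duplicate plates.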

[2] = test system: NCI-H23
How it was run: as §1

[3] = test system: LCLC-97TM1
How it was run: as §1

[4] = test system: NCI-H322M
How it was run: as §1

[5] = test system: NCI-H1299
How it was run: as §1

[6] = test system: NCI-H1703
How it was run: as §1

[7] = test system: NCI-H596
How it was run: as §1

[8] = test system: EBC-1
How it was run: as §1

[9] = test system: IA-LM
How it was run: as §1

[10] = test system: NCI-H1355
How it was run: as §1

[11] = test system: NCI-H1993
How it was run: as §1

[12] = test system: A549
How it was run: as §1

[13] = test system: UMC-11
How it was run: as §1

## Nc1ccn([C@@H]2O[C@H](CO)[C@@H](O)[C@@H]2O)c(=O)n1 [Cytarabine] + CS(=O)(=O)CCNCc1ccc(-c2ccc3ncnc(Nc4ccc(OCc5cccc(F)c5)c(Cl)c4)c3c2)o1 [Lapatinib] (partner 2 µM)
[1]; first compound 0.005 µM
  relative viability: 0.903
[1]; first compound 0.01581 µM
  relative viability: 0.856
[1]; first compound 0.05 µM
  relative viability: 0.921
[1]; first compound 0.1581 µM
  relative viability: 0.512
[1]; first compound 0.5 µM
  relative viability: 0.341
[2]; first compound 0.005 µM
  relative viability: 0.974
[2]; first compound 0.01581 µM
  relative viability: 0.636
[2]; first compound 0.05 µM
  relative viability: 0.734
[2]; first compound 0.1581 µM
  relative viability: 0.203
[2]; first compound 0.5 µM
  relative viability: 0.165
[3]; first compound 0.005 µM
  relative viability: 1.06
[3]; first compound 0.01581 µM
  relative viability: 0.495
[3]; first compound 0.05 µM
  relative viability: 0.163
[3]; first compound 0.1581 µM
  relative viability: 0.161
[3]; first compound 0.5 µM
  relative viability: 0.0949
[4]; first compound 0.005 µM
  relative viability: 0.585
[4]; first compound 0.01581 µM
  relative viability: 0.609
[4]; first compound 0.05 µM
  relative viability: 0.459
[4]; first compound 0.1581 µM
  relative viability: 0.354
[4]; first compound 0.5 µM
  relative viability: 0.348
[5]; first compound 0.005 µM
  relative viability: 0.976
[5]; first compound 0.01581 µM
  relative viability: 0.979
[5]; first compound 0.05 µM
  relative viability: 1.07
[5]; first compound 0.1581 µM
  relative viability: 0.987
[5]; first compound 0.5 µM
  relative viability: 0.95
[6]; first compound 0.005 µM
  relative viability: 0.776
[6]; first compound 0.01581 µM
  relative viability: 0.388
[6]; first compound 0.05 µM
  relative viability: 0.286
[6]; first compound 0.1581 µM
  relative viability: 0.16
[6]; first compound 0.5 µM
  relative viability: 0.194
[7]; first compound 0.005 µM
  relative viability: 1.03
[7]; first compound 0.01581 µM
  relative viability: 0.903
[7]; first compound 0.05 µM
  relative viability: 0.785
[7]; first compound 0.1581 µM
  relative viability: 0.746
[7]; first compound 0.5 µM
  relative viability: 0.609
[8]; first compound 0.01581 µM
  relative viability: 0.22
[8]; first compound 0.05 µM
  relative viability: 0.185
[8]; first compound 0.1581 µM
  relative viability: 0.152
[8]; first compound 0.5 µM
  relative viability: 0.208
[9]; first compound 0.005 µM
  relative viability: 0.85
[9]; first compound 0.01581 µM
  relative viability: 0.729
[9]; first compound 0.05 µM
  relative viability: 0.588
[9]; first compound 0.1581 µM
  relative viability: 0.297
[9]; first compound 0.5 µM
  relative viability: 0.175
[10]; first compound 0.005 µM
  relative viability: 0.884
[10]; first compound 0.01581 µM
  relative viability: 0.968
[10]; first compound 0.05 µM
  relative viability: 0.811
[10]; first compound 0.1581 µM
  relative viability: 0.66
[10]; first compound 0.5 µM
  relative viability: 0.322
[11]; first compound 0.005 µM
  relative viability: 0.71
[11]; first compound 0.01581 µM
  relative viability: 0.929
[11]; first compound 0.05 µM
  relative viability: 0.682
[11]; first compound 0.1581 µM
  relative viability: 0.618
[11]; first compound 0.5 µM
  relative viability: 0.546
[12]; first compound 0.005 µM
  relative viability: 0.835
[12]; first compound 0.01581 µM
  relative viability: 0.648
[12]; first compound 0.05 µM
  relative viability: 0.569
[12]; first compound 0.1581 µM
  relative viability: 0.148
[12]; first compound 0.5 µM
  relative viability: 0.0593
[13]; first compound 0.005 µM
  relative viability: 0.632
[13]; first compound 0.01581 µM
  relative viability: 0.462
[13]; first compound 0.05 µM
  relative viability: 0.434
[13]; first compound 0.1581 µM
  relative viability: 0.193
[13]; first compound 0.5 µM
  relative viability: 0.211

## Cc1sc2c(c1C)C(c1ccc(Cl)cc1)=N[C@@H](CC(=O)OC(C)(C)C)c1nnc(C)n1-2 [JQ1] + Cc1nc(NC(=O)N2CCC[C@H]2C(N)=O)sc1-c1ccnc(C(C)(C)C(F)(F)F)c1 [Alpelisib] (partner 2 µM)
[1]; first compound 0.04 µM
  relative viability: 0.955
[1]; first compound 0.1265 µM
  relative viability: 0.815
[1]; first compound 0.4 µM
  relative viability: 0.818
[1]; first compound 1.265 µM
  relative viability: 0.589
[1]; first compound 4 µM
  relative viability: 0.4
[2]; first compound 0.04 µM
  relative viability: 0.62
[2]; first compound 0.1265 µM
  relative viability: 0.726
[2]; first compound 0.4 µM
  relative viability: 0.454
[2]; first compound 1.265 µM
  relative viability: 0.292
[2]; first compound 4 µM
  relative viability: 0.297
[3]; first compound 0.1265 µM
  relative viability: 0.233
[3]; first compound 0.4 µM
  relative viability: 0.232
[3]; first compound 1.265 µM
  relative viability: 0.133
[3]; first compound 4 µM
  relative viability: 0.128
[4]; first compound 0.04 µM
  relative viability: 0.752
[4]; first compound 0.1265 µM
  relative viability: 0.77
[4]; first compound 0.4 µM
  relative viability: 0.862
[4]; first compound 1.265 µM
  relative viability: 0.68
[4]; first compound 4 µM
  relative viability: 0.587
[5]; first compound 0.04 µM
  relative viability: 1.02
[5]; first compound 0.1265 µM
  relative viability: 0.947
[5]; first compound 0.4 µM
  relative viability: 0.951
[5]; first compound 1.265 µM
  relative viability: 0.514
[5]; first compound 4 µM
  relative viability: 0.353
[6]; first compound 0.04 µM
  relative viability: 0.315
[6]; first compound 0.1265 µM
  relative viability: 0.335
[6]; first compound 0.4 µM
  relative viability: 0.297
[6]; first compound 1.265 µM
  relative viability: 0.26
[6]; first compound 4 µM
  relative viability: 0.321
[7]; first compound 0.04 µM
  relative viability: 0.481
[7]; first compound 0.1265 µM
  relative viability: 0.499
[7]; first compound 0.4 µM
  relative viability: 0.437
[7]; first compound 1.265 µM
  relative viability: 0.41
[7]; first compound 4 µM
  relative viability: 0.343
[8]; first compound 0.04 µM
  relative viability: 0.885
[8]; first compound 0.1265 µM
  relative viability: 0.454
[8]; first compound 0.4 µM
  relative viability: 0.226
[8]; first compound 1.265 µM
  relative viability: 0.142
[8]; first compound 4 µM
  relative viability: 0.149
[9]; first compound 0.04 µM
  relative viability: 0.772
[9]; first compound 0.1265 µM
  relative viability: 0.324
[9]; first compound 0.4 µM
  relative viability: 0.143
[9]; first compound 1.265 µM
  relative viability: 0.0875
[9]; first compound 4 µM
  relative viability: 0.103
[10]; first compound 0.04 µM
  relative viability: 0.856
[10]; first compound 0.1265 µM
  relative viability: 0.84
[10]; first compound 0.4 µM
  relative viability: 0.71
[10]; first compound 1.265 µM
  relative viability: 0.508
[10]; first compound 4 µM
  relative viability: 0.438
[11]; first compound 0.04 µM
  relative viability: 0.705
[11]; first compound 0.1265 µM
  relative viability: 0.653
[11]; first compound 0.4 µM
  relative viability: 0.667
[11]; first compound 1.265 µM
  relative viability: 0.665
[11]; first compound 4 µM
  relative viability: 0.665
[12]; first compound 0.04 µM
  relative viability: 0.785
[12]; first compound 0.1265 µM
  relative viability: 0.644
[12]; first compound 0.4 µM
  relative viability: 0.509
[12]; first compound 1.265 µM
  relative viability: 0.401
[12]; first compound 4 µM
  relative viability: 0.262
[13]; first compound 0.04 µM
  relative viability: 0.941
[13]; first compound 0.1265 µM
  relative viability: 0.997
[13]; first compound 0.4 µM
  relative viability: 0.26
[13]; first compound 1.265 µM
  relative viability: 0.197
[13]; first compound 4 µM
  relative viability: 0.158

## Cc1sc2c(c1C)C(c1ccc(Cl)cc1)=N[C@@H](CC(=O)OC(C)(C)C)c1nnc(C)n1-2 [JQ1] + CC1(C)CCC(c2ccc(Cl)cc2)=C(CN2CCN(c3ccc(C(=O)NS(=O)(=O)c4ccc(N[C@H](CCN5CCOCC5)CSc5ccccc5)c(S(=O)(=O)C(F)(F)F)c4)cc3)CC2)C1 [Navitoclax] (partner 0.5 µM)
[1]; first compound 0.04 µM
  relative viability: 0.821
[1]; first compound 0.1265 µM
  relative viability: 0.757
[1]; first compound 0.4 µM
  relative viability: 0.792
[1]; first compound 1.265 µM
  relative viability: 0.481
[1]; first compound 4 µM
  relative viability: 0.309
[2]; first compound 0.04 µM
  relative viability: 0.687
[2]; first compound 0.1265 µM
  relative viability: 0.781
[2]; first compound 0.4 µM
  relative viability: 0.62
[2]; first compound 1.265 µM
  relative viability: 0.395
[2]; first compound 4 µM
  relative viability: 0.144
[3]; first compound 0.1265 µM
  relative viability: 0.329
[3]; first compound 0.4 µM
  relative viability: 0.403
[3]; first compound 1.265 µM
  relative viability: 0.175
[3]; first compound 4 µM
  relative viability: 0.152
[4]; first compound 0.04 µM
  relative viability: 1.09
[4]; first compound 0.1265 µM
  relative viability: 1.11
[4]; first compound 0.4 µM
  relative viability: 1.1
[4]; first compound 1.265 µM
  relative viability: 0.692
[4]; first compound 4 µM
  relative viability: 0.608
[5]; first compound 0.04 µM
  relative viability: 1.02
[5]; first compound 0.1265 µM
  relative viability: 0.92
[5]; first compound 0.4 µM
  relative viability: 0.933
[5]; first compound 1.265 µM
  relative viability: 0.591
[5]; first compound 4 µM
  relative viability: 0.419
[6]; first compound 0.04 µM
  relative viability: 1.27
[6]; first compound 0.1265 µM
  relative viability: 0.637
[6]; first compound 0.4 µM
  relative viability: 0.928
[6]; first compound 1.265 µM
  relative viability: 0.405
[6]; first compound 4 µM
  relative viability: 0.309
[7]; first compound 0.04 µM
  relative viability: 1.17
[7]; first compound 0.1265 µM
  relative viability: 1.03
[7]; first compound 0.4 µM
  relative viability: 0.421
[7]; first compound 1.265 µM
  relative viability: 0.236
[7]; first compound 4 µM
  relative viability: 0.23
[8]; first compound 0.04 µM
  relative viability: 0.389
[8]; first compound 0.1265 µM
  relative viability: 0.165
[8]; first compound 0.4 µM
  relative viability: 0.174
[8]; first compound 1.265 µM
  relative viability: 0.136
[8]; first compound 4 µM
  relative viability: 0.125
[9]; first compound 0.04 µM
  relative viability: 0.745
[9]; first compound 0.1265 µM
  relative viability: 0.294
[9]; first compound 0.4 µM
  relative viability: 0.126
[9]; first compound 1.265 µM
  relative viability: 0.0769
[9]; first compound 4 µM
  relative viability: 0.0558
[10]; first compound 0.04 µM
  relative viability: 0.87
[10]; first compound 0.1265 µM
  relative viability: 0.972
[10]; first compound 0.4 µM
  relative viability: 0.85
[10]; first compound 1.265 µM
  relative viability: 0.52
[10]; first compound 4 µM
  relative viability: 0.476
[11]; first compound 0.04 µM
  relative viability: 0.929
[11]; first compound 0.1265 µM
  relative viability: 0.811
[11]; first compound 0.4 µM
  relative viability: 0.861
[11]; first compound 1.265 µM
  relative viability: 0.85
[11]; first compound 4 µM
  relative viability: 0.875
[12]; first compound 0.04 µM
  relative viability: 1.27
[12]; first compound 0.1265 µM
  relative viability: 1.06
[12]; first compound 0.4 µM
  relative viability: 1.13
[12]; first compound 1.265 µM
  relative viability: 0.702
[12]; first compound 4 µM
  relative viability: 0.313
[13]; first compound 0.04 µM
  relative viability: 0.266
[13]; first compound 0.1265 µM
  relative viability: 0.292
[13]; first compound 0.4 µM
  relative viability: 0.205
[13]; first compound 1.265 µM
  relative viability: 0.134
[13]; first compound 4 µM
  relative viability: 0.142
